# Reference: US7214691B2, “2-substituted benzimidazole derivatives as selective melanin concentrating hormone receptor antagonists for the treatment of obesity and related disorders” (Schering Corporation, priority 2003, dated 2007)
# Target: T1, MCH receptor (Homo sapiens, UniProt Q99705)
# T1 construct: expressed in transfected cells; host or cells: CHO cells
# Assay: MCH Receptor Binding Assay
# Details: membranes from CHO cells expressing the MCH receptor, [125I]-MCH, SPA; class symbols; read-out: MCH Ki
# Description: MCH Receptor Binding Assay: Membranes from CHO cells expressing the MCH receptor were prepared by lysing cells with 5 mM HEPES for 15 min at 4 C. Cell lysates were centrifuged ([…], 15 min) and the pellet was resuspended in 5 mM HEPES. For each 96-well plate (Microlite, Dynex Technologies), 1 mg of cell membranes were incubated with 10 mg of wheat germ agglutinin SPA beads (Amersham) for 5 min at 4 C in a volume of 10 ml of binding buffer (25 mM HEPES, 10 mM MGCl2, 10 mM NaCl, 5 mM MnCl2, 0.1% BSA). The membrane/bead mixture was centrifuged (1500×g, 3.5 min), the supernatant was aspirated, and the pellet was resuspended in 10 ml binding buffer. The centrifugation, aspiration and resuspension were then repeated. The membrane/bead mixture (100 μl) was then added to 96-well plates containing 50 μl of 500 pM [^125I]-MCH (NEN) and […] of the appropriate concentration of compound (4× the desired final concentration). Nonspecific binding was determined by including 1 μM MCH in the binding reaction. The binding reaction was incubated at room temperature for 2 h. Plates were then analyzed in a TOPCOUNT microplate scintillation counter (Packard). Data was analyzed and Ki values were determined using GraphPad Prism.
# T1 sequence (Q99705 whole entry): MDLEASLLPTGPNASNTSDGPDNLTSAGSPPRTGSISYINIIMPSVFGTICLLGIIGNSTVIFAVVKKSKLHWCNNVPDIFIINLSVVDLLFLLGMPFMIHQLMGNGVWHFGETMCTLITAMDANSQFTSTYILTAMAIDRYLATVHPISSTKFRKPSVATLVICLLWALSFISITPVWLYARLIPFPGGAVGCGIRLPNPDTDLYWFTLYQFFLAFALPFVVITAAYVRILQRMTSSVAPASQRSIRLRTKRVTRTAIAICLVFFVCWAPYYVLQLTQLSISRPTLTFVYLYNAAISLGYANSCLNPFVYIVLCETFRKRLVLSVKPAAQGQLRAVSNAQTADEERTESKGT
row,Ki [nM],SMILES
1,> 100,N#Cc1cccc(-c2ccc(C(=C3CCN(Cc4ccccc4)CC3)c3nc4cc(F)ccc4[nH]3)cc2)c1 [Compound 1a]
2,> 100,COc1cc(C(=C2CCN(CC3CC3)CC2)c2nc3cc(F)c(C(F)(F)F)cc3[nH]2)ccc1-c1cccc(C#N)c1 [Compound 1aa]
3,> 100,COc1cc(C(=C2CCNCC2)c2nc3cc(F)c(C(F)(F)F)cc3[nH]2)ccc1-c1cccc(C#N)c1 [Compound 1ab]
4,< 20,N#Cc1cccc(-c2ccc(C(=C3CCN(Cc4ccccc4)CC3)c3nc4cc(F)c(Cl)cc4[nH]3)cc2)c1 [Compound 1b]
5,< 20,N#Cc1cccc(-c2ccc(C(=C3CCNCC3)c3nc4cc(Cl)c(Cl)cc4[nH]3)cc2)c1 [Compound 1c]
6,< 20,N#Cc1cccc(-c2ccc(C(=C3CCN(CC4CC4)CC3)c3nc4cc(Cl)c(Cl)cc4[nH]3)cc2)c1 [Compound 1d]
7,20 to 50,CN1CCC(=C(c2ccc(-c3cccc(C#N)c3)cc2)c2nc3cc(Cl)c(Cl)cc3[nH]2)CC1 [Compound 1e]
8,< 20,N#Cc1cccc(-c2ccc(C(=C3CCN(C4CCCC4)CC3)c3nc4cc(Cl)c(Cl)cc4[nH]3)cc2)c1 [Compound 1f]
9,50 to 100,CS(=O)(=O)N1CCC(=C(c2ccc(-c3cccc(C#N)c3)cc2)c2nc3cc(Cl)c(Cl)cc3[nH]2)CC1 [Compound 1g]
10,> 100,Fc1cc(F)cc(-c2ccc(C(=C3CCN(CC4CC4)CC3)c3nc4cc(Cl)c(Cl)cc4[nH]3)cc2)c1 [Compound 1h]
11,> 100,N#Cc1ccc(-c2ccc(C(=C3CCN(CC4CC4)CC3)c3nc4cc(Cl)c(Cl)cc4[nH]3)cc2)cc1 [Compound 1i]
12,50 to 100,Clc1cc2nc(C(=C3CCN(CC4CC4)CC3)c3ccc(-c4cccnc4)cc3)[nH]c2cc1Cl [Compound 1j]
13,20 to 50,O=Cc1cccc(-c2ccc(C(=C3CCN(CC4CC4)CC3)c3nc4cc(Cl)c(Cl)cc4[nH]3)cc2)c1 [Compound 1k]
14,20 to 50,CN(C)Cc1cccc(-c2ccc(C(=C3CCN(CC4CC4)CC3)c3nc4cc(Cl)c(Cl)cc4[nH]3)cc2)c1 [Compound 1l]
15,50 to 100,Clc1cc2nc(C(=C3CCN(CC4CC4)CC3)c3ccc(-c4cccc(CN5CCC5)c4)cc3)[nH]c2cc1Cl [Compound 1m]
16,> 100,CC(C)(C)OC(=O)N1CCC(=C(c2ccc(-c3cccc(C#N)c3)cc2)c2nc3cc(F)c(F)cc3[nH]2)CC1 [Compound 1n]
17,50 to 100,N#Cc1cccc(-c2ccc(C(=C3CCNCC3)c3nc4cc(F)c(F)cc4[nH]3)cc2)c1 [Compound 1o]
18,> 100,CN1CCC(=C(c2ccc(-c3cccc(C#N)c3)cc2)c2nc3cc(F)c(F)cc3[nH]2)CC1 [Compound 1p]
19,50 to 100,N#Cc1cccc(-c2ccc(C(=C3CCN(CC4CC4)CC3)c3nc4cc(F)c(F)cc4[nH]3)cc2)c1 [Compound 1q]
20,< 20,N#Cc1cccc(-c2ccc(C(=C3CCNCC3)c3nc4cc(C(F)(F)F)c(F)cc4[nH]3)cc2)c1 [Compound 1r]

row,Ki [nM],SMILES
1,> 100,N#Cc1cccc(-c2ccc(C(=C3CCNCC3)c3nc4c(Cl)cc(Cl)cc4[nH]3)cc2)c1 [Compound 1t]
2,50 to 100,N#Cc1cccc(-c2ccc(C(=C3CCN(CC4CC4)CC3)c3nc4cc(Cl)cc(Cl)c4[nH]3)cc2)c1 [Compound 1u]
3,50 to 100,CS(=O)(=O)N1CCC(=C(c2ccc(-c3cccc(C#N)c3)cc2)c2nc3cc(F)c(C(F)(F)F)cc3[nH]2)CC1 [Compound 1v]
4,20 to 50,CCN(CC)C(=O)N1CCC(=C(c2ccc(-c3cccc(C#N)c3)cc2)c2nc3cc(F)c(C(F)(F)F)cc3[nH]2)CC1 [Compound 1x]
5,20 to 50,CN(C)C(=O)N1CCC(=C(c2ccc(-c3cccc(C#N)c3)cc2)c2nc3cc(F)c(C(F)(F)F)cc3[nH]2)CC1 [Compound 1y]
6,< 20,N#Cc1cccc(-c2ccc(C(=C3CCN(CC(=O)O)CC3)c3nc4cc(F)c(C(F)(F)F)cc4[nH]3)cc2)c1 [Compound 1z]
7,> 100,CC(C)(C)OC(=O)N1CCC2(CC1)CC2(c1ccc(-c2cccc(C#N)c2)cc1)c1nc2cc(F)c(C(F)(F)F)cc2[nH]1 (centres unmarked) [Compound 23a]
8,> 100,CC(C)(C)OC(=O)N1CCC2(CC1)CC2(c1ccc(-c2cccc(C#N)c2)cc1)c1nc2cc(Cl)c(Cl)cc2[nH]1 (centres unmarked) [Compound 23b]
9,< 20,N#Cc1cccc(-c2ccc(C3(c4nc5cc(Cl)c(Cl)cc5[nH]4)CC34CCN(Cc3ccccc3)CC4)cc2)c1 (centres unmarked) [Compound 23c]
10,< 20,N#Cc1cccc(-c2ccc(C3(c4nc5cc(Cl)c(Cl)cc5[nH]4)CC34CCNCC4)cc2)c1 (centres unmarked) [Compound 24b]
11,< 20,N#Cc1cccc(-c2ccc(C3(c4nc5cc(Cl)c(Cl)cc5[nH]4)CC34CCN(CC3CC3)CC4)cc2)c1 (centres unmarked) [Compound 25b]
12,50 to 100,CC(C)S(=O)(=O)N1CCC2(CC1)CC2(c1ccc(-c2cccc(C#N)c2)cc1)c1nc2cc(F)c(C(F)(F)F)cc2[nH]1 (centres unmarked) [Compound 26a]
13,> 100,CC(C)S(=O)(=O)N1CCC2(CC1)CC2(c1ccc(-c2cccc(C#N)c2)cc1)c1nc2cc(Cl)c(Cl)cc2[nH]1 (centres unmarked) [Compound 26b]
14,20 to 50,CN(C)C(=O)N1CCC2(CC1)CC2(c1ccc(-c2cccc(C#N)c2)cc1)c1nc2cc(F)c(C(F)(F)F)cc2[nH]1 (centres unmarked) [Compound 27a]
15,> 100,CCN(CC)C(=O)N1CCC2(CC1)CC2(c1ccc(-c2cccc(C#N)c2)cc1)c1nc2cc(F)c(C(F)(F)F)cc2[nH]1 (centres unmarked) [Compound 27c]
16,20 to 50,N#Cc1cccc(-c2ccc(C3(c4nc5cc(F)c(C(F)(F)F)cc5[nH]4)CC34CCN(CC(=O)O)CC4)cc2)c1 (centres unmarked) [Compound 28a]
17,> 100,N#Cc1cccc(-c2ccc(C3(c4nc5cc(F)c(C(F)(F)F)cc5[nH]4)CC34CCN(c3nccs3)CC4)cc2)c1 (centres unmarked) [Compound 29a]
18,> 100,N#Cc1cccc(-c2ccc(C3(c4nc5cc(F)c(C(F)(F)F)cc5[nH]4)CC34CCN(c3nc5ccc(Cl)cc5s3)CC4)cc2)c1 (centres unmarked) [Compound 29b]
19,> 100,N#Cc1cccc(-c2ccc(C3(c4nc5cc(F)c(C(F)(F)F)cc5[nH]4)CC34CCN(c3nc5ccccc5s3)CC4)cc2)c1 (centres unmarked) [Compound 29c]

row,SMILES,Ki [nM]
1,N#Cc1cccc(-c2ccc(C3(c4nc5cc(F)c(C(F)(F)F)cc5[nH]4)CC34CCNCC4)cc2)c1 (centres unmarked) [Compound 24a],< 20

# Same assay, conditions: membranes from CHO cells expressing the MCH receptor, [125I]-MCH, SPA; numeric value in text; read-out: Ki value
row,SMILES,Ki [nM]
1,N#Cc1cccc(-c2ccc(C3(c4nc5cc(F)c(C(F)(F)F)cc5[nH]4)CC34CCNCC4)cc2)c1 (centres unmarked) [Compound 24a],1.7
